Measured values published in the NIST ThermoML archive (doi:10.1016/j.fluid.2004.09.013).

Conditions: for mass density: Fluid (supercritical or subcritical phases), Vibrating tube method

C/C=C\C [(Z)-2-butene]
Conditions | Critical density [kg/m3] | mass density [kg/m3]
453.24 K, 29992 kPa | – | 504.64
453.24 K, 34997 kPa | – | 516.94
453.24 K, 39986 kPa | – | 527.56
458.24 K, 5019 kPa | – | 150.54
458.24 K, 9982 kPa | – | 395.53
458.24 K, 14988 kPa | – | 439.55
458.24 K, 20006 kPa | – | 465.63
458.24 K, 24985 kPa | – | 484.52
458.24 K, 30000 kPa | – | 499.71
458.24 K, 34991 kPa | – | 512.34
458.24 K, 39989 kPa | – | 523.28
463.23 K, 39987 kPa | – | 519.02
463.24 K, 5019 kPa | – | 137.08
463.24 K, 9986 kPa | – | 383.54
463.24 K, 14987 kPa | – | 431.68
463.24 K, 20001 kPa | – | 459.21
463.24 K, 24986 kPa | – | 479.01
463.24 K, 29986 kPa | – | 494.71
463.24 K, 34995 kPa | – | 507.77
468.24 K, 5018 kPa | – | 127.59
468.24 K, 10000 kPa | – | 371.16
468.24 K, 14996 kPa | – | 423.86
468.24 K, 20007 kPa | – | 452.9
468.24 K, 24993 kPa | – | 473.52
468.24 K, 29993 kPa | – | 489.76
468.24 K, 34996 kPa | – | 503.22
468.24 K, 40007 kPa | – | 514.77
473.23 K, 5018 kPa | – | 120.28
473.24 K, 9991 kPa | – | 357.88
473.24 K, 14997 kPa | – | 415.28
473.24 K, 20004 kPa | – | 446.42
473.24 K, 25004 kPa | – | 467.94
473.24 K, 30000 kPa | – | 484.78
473.24 K, 34996 kPa | – | 498.62
473.24 K, 39991 kPa | – | 510.47
478.23 K, 14995 kPa | – | 407.2
478.23 K, 19994 kPa | – | 439.87
478.23 K, 25001 kPa | – | 462.4
478.23 K, 35013 kPa | – | 494.09
478.23 K, 39992 kPa | – | 506.21
478.24 K, 5015 kPa | – | 114.19
478.24 K, 9987 kPa | – | 344.22
478.24 K, 29999 kPa | – | 479.77
483.23 K, 5018 kPa | – | 109.23
483.23 K, 19992 kPa | – | 433.21
483.24 K, 10014 kPa | – | 330.62
483.24 K, 14991 kPa | – | 398.7
483.24 K, 25005 kPa | – | 456.72
483.24 K, 29995 kPa | – | 474.68
483.24 K, 34999 kPa | – | 489.39
483.24 K, 39992 kPa | – | 501.87
488.23 K, 5019 kPa | – | 104.99
488.23 K, 19987 kPa | – | 426.61
488.23 K, 25005 kPa | – | 451.11
488.23 K, 29989 kPa | – | 469.66
488.23 K, 34990 kPa | – | 484.81
488.23 K, 39992 kPa | – | 497.63
488.24 K, 10014 kPa | – | 316.46
488.24 K, 15002 kPa | – | 390.34
493.23 K, 5016 kPa | – | 101.23
493.23 K, 9986 kPa | – | 301.65
493.23 K, 14996 kPa | – | 381.74
493.23 K, 19990 kPa | – | 420.02
493.23 K, 24987 kPa | – | 445.42
493.23 K, 29998 kPa | – | 464.71
493.23 K, 35003 kPa | – | 480.29
493.23 K, 40013 kPa | – | 493.44
498.23 K, 5018 kPa | – | 97.97
498.23 K, 9985 kPa | – | 287.72
498.23 K, 14994 kPa | – | 373.12
498.23 K, 19993 kPa | – | 413.38
498.23 K, 24997 kPa | – | 439.84
498.23 K, 29994 kPa | – | 459.71
498.23 K, 35006 kPa | – | 475.76
498.23 K, 40006 kPa | – | 489.2
503.23 K, 5019 kPa | – | 95.03
503.23 K, 10004 kPa | – | 274.87
503.23 K, 14996 kPa | – | 364.53
503.23 K, 20003 kPa | – | 406.9
503.23 K, 24990 kPa | – | 434.25
503.23 K, 29984 kPa | – | 454.72
503.23 K, 34985 kPa | – | 471.2
503.23 K, 39993 kPa | – | 485.02
508.23 K, 5019 kPa | – | 92.41
508.23 K, 9990 kPa | – | 262
508.23 K, 15002 kPa | – | 356.04
508.23 K, 19984 kPa | – | 400.28
508.23 K, 25008 kPa | – | 428.76
508.23 K, 29983 kPa | – | 449.83
508.23 K, 35004 kPa | – | 466.79
508.23 K, 40004 kPa | – | 480.91
513.23 K, 5014 kPa | – | 89.94
513.23 K, 9984 kPa | – | 250.08
513.23 K, 14990 kPa | – | 347.39
513.23 K, 19997 kPa | – | 393.83
513.23 K, 25007 kPa | – | 423.21
513.23 K, 29985 kPa | – | 444.89
513.23 K, 35002 kPa | – | 462.3
513.23 K, 40010 kPa | – | 476.76
518.22 K, 5019 kPa | – | 87.78
518.22 K, 14988 kPa | – | 338.79
518.22 K, 25002 kPa | – | 417.6
518.22 K, 30005 kPa | – | 440.02
518.22 K, 39988 kPa | – | 472.55
518.23 K, 9996 kPa | – | 239.51
518.23 K, 20004 kPa | – | 386.86
518.23 K, 34991 kPa | – | 457.76
523.22 K, 5019 kPa | – | 85.68
523.22 K, 9990 kPa | – | 229.24
523.22 K, 14985 kPa | – | 330.32
523.22 K, 25011 kPa | – | 412.04
523.22 K, 29990 kPa | – | 435.04
523.22 K, 34984 kPa | – | 453.26
523.22 K, 40013 kPa | – | 468.46
523.23 K, 20001 kPa | – | 380.33
Liquid, visual observation in a variable volume cell:FP | 238.12 | –

Liquid
Conditions | Critical pressure [kPa] | Critical temperature [K]
– | 4225.5 | 435.75
